Laboratory results reported in article PMC5218480 (PLoS ONE, 2017).

Test system: MV-4-11 cells
Assay: Gene expression microarray analysis (Affymetrix PrimeView) and GSEA
Type: cell-based, human
Set-up: RFU PODN (11730768_x_at) / Fold change /veh PODN (11730768_x_at) / RFU LINC00158 (11744669_a_at) / Fold change /veh LINC00158 (11744669_a_at) / RFU DUSP10 (11751237_a_at) / Fold change /veh DUSP10 (11751237_a_at) / RFU ID3 (11757404_x_at) / Fold change /veh ID3 (11757404_x_at) / RFU PLEKHG5 (11737974_s_at) / Fold change /veh PLEKHG5 (11737974_s_at) / RFU LRRC4B (11730491_at) / Fold change /veh LRRC4B (11730491_at) / RFU GIMAP4 (11747438_a_at) / Fold change /veh GIMAP4 (11747438_a_at) / RFU KRT8 (11758183_x_at) / Fold change /veh KRT8 (11758183_x_at) / RFU CNN1 (11734310_a_at) / Fold change /veh CNN1 (11734310_a_at) / RFU VPS37D (11726825_at) / Fold change /veh VPS37D (11726825_at) / RFU C10orf10 (11716522_x_at) / Fold change /veh C10orf10 (11716522_x_at) / RFU KIR2DL2 /// KIR2DL4 /// KIR2DL5A /// KIR2DL5B /// KIR2DS1 /// KIR2DS2 /// KIR2DS3 /// KIR2DS4 /// KIR3DL3 /// KIR3DL3 /// KIR3DS1 (11738374_at) / Fold change /veh KIR2DL2 /// KIR2DL4 /// KIR2DL5A /// KIR2DL5B /// KIR2DS1 /// KIR2DS2 /// KIR2DS3 /// KIR2DS4 /// KIR3DL3 /// KIR3DL3 /// KIR3DS1 (11738374_at) / RFU C1QL1 (11718748_at) / Fold change /veh C1QL1 (11718748_at) / RFU TMPRSS4 (11747572_a_at) / Fold change /veh TMPRSS4 (11747572_a_at) / RFU HAMP (11756126_x_at) / Fold change /veh HAMP (11756126_x_at) / RFU RNFT2 (11725882_a_at) / Fold change /veh RNFT2 (11725882_a_at) / RFU NR4A2 (11747474_a_at) / Fold change /veh NR4A2 (11747474_a_at) / RFU ABCC12 (11746883_a_at) / Fold change /veh ABCC12 (11746883_a_at) / RFU TMEM136 (11760407_x_at) / Fold change /veh TMEM136 (11760407_x_at) / RFU CLDN22 /// WWC2 (11732394_at) / Fold change /veh CLDN22 /// WWC2 (11732394_at) / RFU HLA-DPB1 (11760878_x_at) / Fold change /veh HLA-DPB1 (11760878_x_at) / RFU SPINT1 (11716480_a_at) / Fold change /veh SPINT1 (11716480_a_at) / RFU GAP43 (11754022_s_at) / Fold change /veh GAP43 (11754022_s_at) / RFU A4GNT (11735810_at) / Fold change /veh A4GNT (11735810_at) / RFU PRB3 (11715151_x_at) / Fold change /veh PRB3 (11715151_x_at) / RFU TUBB4B (11761932_at) / Fold change /veh TUBB4B (11761932_at) / RFU CAPN14 (11732068_a_at) / Fold change /veh CAPN14 (11732068_a_at) / RFU TMCC2 (11721928_a_at) / Fold change /veh TMCC2 (11721928_a_at) / RFU IRGQ (11745062_a_at) / Fold change /veh IRGQ (11745062_a_at) / RFU FAM174B (11720279_a_at) / Fold change /veh FAM174B (11720279_a_at) / RFU TMPRSS4 (11748680_a_at) / Fold change /veh TMPRSS4 (11748680_a_at) / RFU FAM212B (11763350_a_at) / Fold change /veh FAM212B (11763350_a_at) / RFU PLEKHG5 (11743358_a_at) / Fold change /veh PLEKHG5 (11743358_a_at) / RFU ZSCAN30 (11745921_a_at) / Fold change /veh ZSCAN30 (11745921_a_at) / RFU CMKLR1 (11741424_a_at) / Fold change /veh CMKLR1 (11741424_a_at) / RFU LOC101060620 /// MAPK8IP1 (11723275_at) / Fold change /veh LOC101060620 /// MAPK8IP1 (11723275_at) / RFU SPTSSB (11747773_x_at) / Fold change /veh SPTSSB (11747773_x_at) / RFU PRSS12 (11739890_at) / Fold change /veh PRSS12 (11739890_at) / RFU BIN1 (11741810_x_at) / Fold change /veh BIN1 (11741810_x_at) / RFU WNT11 (11732464_a_at) / Fold change /veh WNT11 (11732464_a_at) / RFU C10orf10 (11716521_a_at) / Fold change /veh C10orf10 (11716521_a_at) / RFU C5orf56 (11738089_at) / Fold change /veh C5orf56 (11738089_at) / RFU CYB561 (11721691_x_at) / Fold change /veh CYB561 (11721691_x_at) / RFU ANKRD19P (11752326_a_at) / Fold change /veh ANKRD19P (11752326_a_at) / RFU OR2T12 /// OR2T33 /// OR2T8 (11738714_s_at) / Fold change /veh OR2T12 /// OR2T33 /// OR2T8 (11738714_s_at) / RFU VCAN (11748164_a_at) / Fold change /veh VCAN (11748164_a_at) / RFU JSRP1 (11732532_at) / Fold change /veh JSRP1 (11732532_at) / RFU KRTAP10-11 (11738290_x_at) / Fold change /veh KRTAP10-11 (11738290_x_at) / RFU MYO3A (11730013_a_at) / Fold change /veh MYO3A (11730013_a_at) / RFU EBF3 (11725865_a_at) / Fold change /veh EBF3 (11725865_a_at) / RFU CAMK2N1 (11719241_x_at) / Fold change /veh CAMK2N1 (11719241_x_at) / RFU C5orf56 (11738088_a_at) / Fold change /veh C5orf56 (11738088_a_at) / RFU OLFML3 (11715873_a_at) / Fold change /veh OLFML3 (11715873_a_at) / RFU LOC100653217 /// NTM (11731650_a_at) / Fold change /veh LOC100653217 /// NTM (11731650_a_at) / RFU MAPK11 (11762145_a_at) / Fold change /veh MAPK11 (11762145_a_at) / RFU FIZ1 (11724087_x_at) / Fold change /veh FIZ1 (11724087_x_at) / RFU OASL (11726364_x_at) / Fold change /veh OASL (11726364_x_at) / RFU SOX15 (11748057_x_at) / Fold change /veh SOX15 (11748057_x_at) / RFU CD79A (11719716_a_at) / Fold change /veh CD79A (11719716_a_at) / RFU HIST1H1D (11736915_at) / Fold change /veh HIST1H1D (11736915_at) / RFU CASKIN2 (11723855_a_at) / Fold change /veh CASKIN2 (11723855_a_at) / RFU LOC730098 (11760151_x_at) / Fold change /veh LOC730098 (11760151_x_at) / RFU OR4N2 (11742367_at) / Fold change /veh OR4N2 (11742367_at) / RFU PRRT2 (11749266_a_at) / Fold change /veh PRRT2 (11749266_a_at) / RFU SNX32 (11753110_a_at) / Fold change /veh SNX32 (11753110_a_at) / RFU CDHR5 (11726645_a_at) / Fold change /veh CDHR5 (11726645_a_at) / RFU RCAN1 (11760418_a_at) / Fold change /veh RCAN1 (11760418_a_at) / RFU FAM167A (11723789_a_at) / Fold change /veh FAM167A (11723789_a_at) / RFU FAM26E (11764081_at) / Fold change /veh FAM26E (11764081_at) / RFU ISYNA1 (11749810_s_at) / Fold change /veh ISYNA1 (11749810_s_at) / RFU ACY1 (11761880_at) / Fold change /veh ACY1 (11761880_at) / RFU 11764098_at / Fold change /veh 11764098_at / RFU SAMD14 (11745864_x_at) / Fold change /veh SAMD14 (11745864_x_at) / RFU NPB (11741838_a_at) / Fold change /veh NPB (11741838_a_at) / RFU TMPRSS6 (11731388_a_at) / Fold change /veh TMPRSS6 (11731388_a_at) / RFU KRTAP10-2 (11738614_at) / Fold change /veh KRTAP10-2 (11738614_at) / RFU ARHGAP8 /// PRR5-ARHGAP8 (11727945_x_at) / Fold change /veh ARHGAP8 /// PRR5-ARHGAP8 (11727945_x_at) / RFU KRTAP5-7 /// NADSYN1 (11734609_at) / Fold change /veh KRTAP5-7 /// NADSYN1 (11734609_at) / RFU RASL12 (11751679_a_at) / Fold change /veh RASL12 (11751679_a_at) / RFU CDKN2B (11736163_a_at) / Fold change /veh CDKN2B (11736163_a_at) / RFU PRF1 (11729649_at) / Fold change /veh PRF1 (11729649_at) / RFU, ZNF638 /// ZNF638-IT1 / Fold change vs veh, ZNF638 /// ZNF638-IT1 / RFU, PANK3 / Fold change vs veh, PANK3 / RFU, SH3YL1 / Fold change vs veh, SH3YL1 / RFU, ZEB2 / Fold change vs veh, ZEB2 / RFU, NRIP1 / Fold change vs veh, NRIP1 / RFU, PTTG1IP / Fold change vs veh, PTTG1IP / RFU, CAPN2 / Fold change vs veh, CAPN2 / RFU, MED14 / Fold change vs veh, MED14 / RFU, SNORA58 / Fold change vs veh, SNORA58 / RFU, C1orf63 / Fold change vs veh, C1orf63 / RFU, LRRFIP1 / Fold change vs veh, LRRFIP1 / RFU, NDUFAF7 / Fold change vs veh, NDUFAF7 / RFU, SLC12A2 / Fold change vs veh, SLC12A2 / RFU, IBTK / Fold change vs veh, IBTK / RFU, ESF1 / Fold change vs veh, ESF1 / Fold change vs veh, TMEM50B / RFU, TAOK1 / Fold change vs veh, TAOK1 / RFU, ACBD3 / Fold change vs veh, ACBD3 / RFU, TMA16 / Fold change vs veh, TMA16 / RFU, RWDD3 / Fold change vs veh, RWDD3 / RFU, BCAT1 / Fold change vs veh, BCAT1 / RFU, EDEM3 / Fold change vs veh, EDEM3 / RFU, TMEM33 / Fold change vs veh, TMEM33 / RFU, WDR75 / Fold change vs veh, WDR75 / RFU, AHCTF1 / Fold change vs veh, AHCTF1 / RFU, TFRC / Fold change vs veh, TFRC / RFU, ZDHHC17 / Fold change vs veh, ZDHHC17 / RFU, NOM1 / Fold change vs veh, NOM1 / RFU, ARL8B / Fold change vs veh, ARL8B / RFU, ZBTB11 / Fold change vs veh, ZBTB11 / RFU, TAMM41 / Fold change vs veh, TAMM41 / RFU, KIAA1704 /// LOC100996395 / Fold change vs veh, KIAA1704 /// LOC100996395 / RFU, ING1 / Fold change vs veh, ING1 / RFU, TRMT61B / Fold change vs veh, TRMT61B / RFU, FUBP3 / Fold change vs veh, FUBP3 / RFU, TP53 / Fold change vs veh, TP53 / RFU, TNKS2 / Fold change vs veh, TNKS2 / RFU, ZFP14 / Fold change vs veh, ZFP14 / RFU, ACTR2 / Fold change vs veh, ACTR2 / RFU, PPP3R1 / Fold change vs veh, PPP3R1 / RFU, PIK3R1 / Fold change vs veh, PIK3R1 / RFU, HNRNPA1 / Fold change vs veh, HNRNPA1 / RFU, RNF170 / Fold change vs veh, RNF170 / RFU, ZNF28 / Fold change vs veh, ZNF28 / RFU, RNGTT / Fold change vs veh, RNGTT / RFU, OGT / Fold change vs veh, OGT / RFU, BRD1 / Fold change vs veh, BRD1 / RFU, MARS / Fold change vs veh, MARS / RFU, ZNF655 / Fold change vs veh, ZNF655 / RFU, FAHD1 / Fold change vs veh, FAHD1 / RFU, BDP1 / Fold change vs veh, BDP1 / RFU, LRRCC1 / Fold change vs veh, LRRCC1 / RFU, ARID1A / Fold change vs veh, ARID1A / RFU, ZNF146 / Fold change vs veh, ZNF146 / RFU, ZNF330 / Fold change vs veh, ZNF330 / RFU, GPN3 / Fold change vs veh, GPN3 / RFU, C9orf123 / Fold change vs veh, C9orf123 / RFU, N4BP2L2 / Fold change vs veh, N4BP2L2 / RFU, ARFIP1 / Fold change vs veh, ARFIP1 / RFU, FAM179B / Fold change vs veh, FAM179B / RFU, BCL10 / Fold change vs veh, BCL10 / RFU, UHRF1BP1L / Fold change vs veh, UHRF1BP1L / RFU, BET1 / Fold change vs veh, BET1 / RFU, CNOT2 / Fold change vs veh, CNOT2 / RFU, ZNF268 / Fold change vs veh, ZNF268 / Fold change vs veh, ZNF507 / RFU, DGCR2 / Fold change vs veh, DGCR2 / RFU, WDSUB1 / Fold change vs veh, WDSUB1 / Fold change vs veh, HSP90B1 /// MIR3652 / RFU, ADSS / Fold change vs veh, ADSS / RFU, GK / Fold change vs veh, GK / RFU, ZNF148 / Fold change vs veh, ZNF148 / RFU, TAF9 / Fold change vs veh, TAF9 / RFU, SLC1A5 / Fold change vs veh, SLC1A5 / RFU, SLMO2 / Fold change vs veh, SLMO2 / RFU, ABCC4 / Fold change vs veh, ABCC4 / RFU, LOC101060439 /// RAP1B / Fold change vs veh, LOC101060439 /// RAP1B / RFU, RFX7 / Fold change vs veh, RFX7 / RFU, GTPBP10 / Fold change vs veh, GTPBP10 / RFU, CNEP1R1 / Fold change vs veh, CNEP1R1 / RFU, BIVM-ERCC5 /// ERCC5 / Fold change vs veh, BIVM-ERCC5 /// ERCC5 / RFU, ILF3 / Fold change vs veh, ILF3 / RFU 11762660_at / Fold change /veh 11762660_at / RFU VCAN (11757783_s_at) / Fold change /veh VCAN (11757783_s_at) / RFU DDX43 (11728927_at) / Fold change /veh DDX43 (11728927_at) / RFU KRT8 (11758188_x_at) / Fold change /veh KRT8 (11758188_x_at) / RFU NKD1 (11759106_at) / Fold change /veh NKD1 (11759106_at) / RFU SRD5A1 (11742802_a_at) / Fold change /veh SRD5A1 (11742802_a_at) / RFU TPSAB1 /// TPSB2 (11721975_s_at) / Fold change /veh TPSAB1 /// TPSB2 (11721975_s_at) / RFU GSTM3 (11746129_a_at) / Fold change /veh GSTM3 (11746129_a_at) / RFU IL23R (11737362_x_at) / Fold change /veh IL23R (11737362_x_at) / RFU TMEM51 (11727254_a_at) / Fold change /veh TMEM51 (11727254_a_at) / RFU PIWIL2 (11732686_x_at) / Fold change /veh PIWIL2 (11732686_x_at) / RFU ORM1 (11744905_x_at) / Fold change /veh ORM1 (11744905_x_at) / RFU CCDC152 (11743942_at) / Fold change /veh CCDC152 (11743942_at) / RFU ECM1 (11717891_a_at) / Fold change /veh ECM1 (11717891_a_at) / RFU IL23R (11748794_a_at) / Fold change /veh IL23R (11748794_a_at) / RFU TNFAIP8L3 (11732012_x_at) / Fold change /veh TNFAIP8L3 (11732012_x_at) / RFU MBOAT4 (11741988_at) / Fold change /veh MBOAT4 (11741988_at) / RFU 11764193_at / Fold change /veh 11764193_at / RFU TMEM53 (11763286_at) / Fold change /veh TMEM53 (11763286_at) / RFU MAGEB2 (11727129_at) / Fold change /veh MAGEB2 (11727129_at) / RFU TMEM200A (11744735_a_at) / Fold change /veh TMEM200A (11744735_a_at) / RFU CCDC152 (11751479_a_at) / Fold change /veh CCDC152 (11751479_a_at) / RFU FAM211A (11726209_a_at) / Fold change /veh FAM211A (11726209_a_at) / RFU RGS16 (11746705_a_at) / Fold change /veh RGS16 (11746705_a_at) / RFU VCAN (11755009_s_at) / Fold change /veh VCAN (11755009_s_at) / RFU RHOB (11743442_s_at) / Fold change /veh RHOB (11743442_s_at) / RFU RGS16 (11720943_a_at) / Fold change /veh RGS16 (11720943_a_at) / RFU RGS16 (11720944_at) / Fold change /veh RGS16 (11720944_at) / RFU, VPS4B / Fold change vs veh, VPS4B / RFU, CREB1 / Fold change vs veh, CREB1 / RFU, DNAJC13 / Fold change vs veh, DNAJC13 / RFU, GNAQ / Fold change vs veh, GNAQ / RFU, CDK5R1 / Fold change vs veh, CDK5R1 / RFU, ZRANB3 / Fold change vs veh, ZRANB3 / RFU, CUL4A / Fold change vs veh, CUL4A / RFU, CCNY / Fold change vs veh, CCNY / RFU, UFL1 / Fold change vs veh, UFL1 / RFU, COG3 / Fold change vs veh, COG3 / RFU, DIAPH2 / Fold change vs veh, DIAPH2 / RFU, SKA2 / Fold change vs veh, SKA2 / RFU, AFF3 / Fold change vs veh, AFF3 / RFU, LMF1 / Fold change vs veh, LMF1 / RFU, IPO11 / Fold change vs veh, IPO11 / RFU, DFFB / Fold change vs veh, DFFB / RFU, FOXP1 / Fold change vs veh, FOXP1 / RFU, CARD8 / Fold change vs veh, CARD8 / RFU, STRN3 / Fold change vs veh, STRN3 / RFU, ADK / Fold change vs veh, ADK / RFU, RASSF2 / Fold change vs veh, RASSF2 / RFU, WIPF1 / Fold change vs veh, WIPF1 / RFU, LARP1B / Fold change vs veh, LARP1B / RFU, RASA1 / Fold change vs veh, RASA1 / RFU, RB1 / Fold change vs veh, RB1 / RFU, PPFIA1 / Fold change vs veh, PPFIA1 / RFU, MAT2A / Fold change vs veh, MAT2A / RFU, CCT5 / Fold change vs veh, CCT5 / RFU, WDR92 / Fold change vs veh, WDR92 / RFU, CUX1 / Fold change vs veh, CUX1 / RFU, TTC7A / Fold change vs veh, TTC7A / RFU, TMEM135 / Fold change vs veh, TMEM135 / RFU, DEPTOR / Fold change vs veh, DEPTOR / RFU, CPM / Fold change vs veh, CPM / RFU, DNAJB6 / Fold change vs veh, DNAJB6 / RFU, CACNA2D3 / Fold change vs veh, CACNA2D3 / RFU, DTX4 / Fold change vs veh, DTX4 / RFU, TFCP2 / Fold change vs veh, TFCP2 / RFU, GMCL1 /// GMCL1P1 / Fold change vs veh, GMCL1 /// GMCL1P1 / RFU, AEBP2 / Fold change vs veh, AEBP2 / RFU, SNHG1 /// SNORD22 /// SNORD25 /// SNORD26 /// SNORD27 /// SNORD28 /// SNORD29 /// SNORD31 / Fold change vs veh, SNHG1 /// SNORD22 /// SNORD25 /// SNORD26 /// SNORD27 /// SNORD28 /// SNORD29 /// SNORD31 / Fold change (Aza/veh), C12orf56 (ProbeSet 11735607_a_at) / Fold change (ACY-1035/veh), C12orf56 (ProbeSet 11735607_a_at) / Fold change (Aza/veh), FGFR1OP (ProbeSet 11751329_s_at) / Fold change (ACY-1035/veh), FGFR1OP (ProbeSet 11751329_s_at) / Fold change (Aza/veh), VPS36 (ProbeSet 11739960_a_at) / Fold change (ACY-1035/veh), VPS36 (ProbeSet 11739960_a_at) / RFU SYPL1 (11715823_x_at) / Fold change /veh SYPL1 (11715823_x_at) / RFU IGFBP7 (11715501_s_at) / Fold change /veh IGFBP7 (11715501_s_at) / RFU REEP3 (11722064_at) / Fold change /veh REEP3 (11722064_at) / RFU IGLL1 (11728026_x_at) / Fold change /veh IGLL1 (11728026_x_at): dose or concentration left out as unconfirmed
Details: ProbeSet 11725787_a_at; LIST B

Compound: Nc1ccc(-c2cccs2)cc1NC(=O)c1ccc2c(c1)cc(C1CC1)n2CCN1CCOCC1 [ACY-1035]
- Fold change vs veh, TMA16: 0.86
